# According to PMC7407491, “The Addition of a Synthetic LPS-Targeting Domain Improves Serum Stability While Maintaining Antimicrobial, Antibiofilm, and Cell Stimulating Properties of an Antimicrobial Peptide” (Biomolecules, 2020):
# Tests used:
# MRSA = type: cell-based, Methicillin-resistant Staphylococcus aureus; details: 2 h, pH 7
# Description: (§1) Veterinary clinical isolates, including Salmonella typhimurium, multi-drug resistant Escherichia coli, methicillin-resistant Staphylococcus aureus (MRSA), and methicillin-resistant Staphylococcus pseudointermedius (MRSP), were kindly provided by Dr. H. Cai (Department of Pathobiology, University of Guelph, ON, Canada). An antibiogram for these strains is available in the supplementary text (Table S1). Gram-negative strains were cultured in Luria−Bertani (LB) broth. Gram-positive strains were cultured in Tryptic soy broth (TSB). Both cultures were grown under aerobic conditions at 37 °C.
# (§2) The minimum bactericidal concentration (MBC) of SynPG-1 against the tested pathogens was identified through a broth macrodilution antimicrobial assay as previously described, with some modification. […] The buffer volume was adjusted to accommodate the addition of SynPG-1 and PG-1 so that the final solution volume was 0.5 mL for each tested concentration. Final peptide concentrations ranged from 0.1 µg/mL to 8 µg/mL. PG-1 at the known MBC (2 µg/mL E. coli; 4 µg/mL S. typhimurium; 0.5 µg/mL MRSP; 0.5 µg/mL MRSA) was considered the in-house positive control, while the suspension containing no peptide was considered the negative control. Experimental and control tubes were incubated for 2 h at 37 °C without shaking to allow for bactericidal action to occur. […] Colony numbers from each plate were recorded. […]
# [1] = 25% porcine intestinal fluid (pH 6.5) in PBS, 1 mg/mL peptide, 1 h 37 °C with shaking; residual activity vs E. coli at 20 µg/mL, colony count; three independent experiments
# Description: Porcine digestive fluids were collected, as previously described by Wang et al. [44]. […] The gastrointestinal tract was kept at 4 °C during dissection, and collection of contents from the stomach and upper small intestine (duodenum and jejunum) was conducted within 5 h of sacrifice. Contents were centrifuged at 10,000 rpm (9600× g) for 10 min at 4 °C, and supernatant fluid was collected and stored at −80 °C until its use in the stability experiment. The pH of the collected supernatants were 3.5 and 6.5 for gastric fluid and duodenum fluid, respectively.
# Procedures similar to those used by Egger et al. [45] were used for this experiment. […] Suspension containing no peptide was considered the negative control. After incubation, 10 µL of the incubated solutions was added for a total volume of 0.5 mL, consisting of 20 µL of mid-logarithmic phase E. coli cells, diluted to a concentration of about 1 × 10^5 CFU/mL, and 470 µL of 20 mM sodium phosphate buffer (pH 7). […] Stability in porcine digestive fluid was evaluated as the relative colony growth on plates from bacterial grown with digestive fluid and peptide treatments, in comparison to plates grown from bacteria grown with digestive fluid alone.
# Stability was evaluated by comparing the mean growth of colonies on plates treated with peptides incubated in digestive fluids to colonies grown when treated without peptide. […]
# IPEC-J2 cells = assay: In vitro cell migration, transwell assay; type: cell-based, porcine; details: transwell 8-micron, serum-free DMEM F-12, 5 to 20 µg/mL, 16 h, Hoechst 33342 count; SynPG-1 not significant at higher concentrations
# Description: A cell line, established from intestinal porcine enterocytes, isolated from the jejunum of a neonatal unsuckled piglet (IPEC-J2 cells, DSMZ), was grown in monolayer culture in Dulbecco’s modified Eagle’s medium (high glucose), supplemented with 10% fetal bovine serum (FBS) from Invitrogen, 100 IU/mL penicillin, and 100 µg/mL streptomycin. Cultures were maintained in a 5% CO2 humidified atmosphere at 37 °C and passaged every 2–3 days, with detachment via the Trypsin-EDTA solution (Sigma).
# To evaluate migration of IPEC-J2 cells, 8-micron pore-sized cell culture transwell inserts were used (Millipore Inc, Temecula, CA, USA). A total of 1 × 10^5 cells were plated in the upper inserts of the transwell and placed within 24-well plates, containing serum-free DMEM F-12 in the absence and presence of SynPG-1 or PG-1, at concentrations ranging from 5 µg/mL to 20 µg/mL. After incubation for 16 h, the cells were fixed with 4% (w/v) paraformaldehyde. […] Migration was quantified by cell enumeration through Hoechst 33342 staining of cell nuclei (Thermo Fisher Scientific, Mississauga, ON, Canada). The results are represented as the relative fold increase in migrated cells when compared to the baseline migration of IPEC-J2 cells in serum-free media after 16 h.
# A. baumanni biofilm = details: tested alone or with an antibiotic; reduction in crystal violet staining only; cited from earlier work
# Text: Although many have studied the antimicrobial potential of PG-1, its anti-biofilm properties have only been tested against a few species, including Streptococcus mutans and Acinetobacter baumanni. Since the composition of the extracellular polymeric substance (EPS) of a biofilm can vary widely from species to species, further investigation into the PG-1′s spectrum of antibiofilm activity is necessary. To do so, we evaluated the effect of PG-1 and SynPG-1 on the disruption and formation of biofilms from three pathogenic MDR bacteria and measured the remaining viable pathogens. ...
# MRSA biofilm = assay: Biofilm inhibition assay, crystal violet; type: cell-based, Methicillin-resistant Staphylococcus aureus
# Description: Plates were placed in a static incubator at 37 °C for 48 h; the time required for untreated wells to form biofilm. After incubation, treated media was removed and wells were rinsed with 155 µL of PBS to remove planktonic cells. After sufficient air drying of wells, 150 µL of 0.1% Crystal violet stain was added to each well and incubated at room temperature for 30 min, after which, dye was removed and wells were rinsed again with 155 µL of PBS. After sufficient drying of wells, 150 µL of 70% ethanol solution was added to each well and incubated at room temperature for 30 min. After 30 min, 100 µL of each well was added to a new 96-well plate and absorbance was measured at an OD of 590 nm.
# MRSP = type: cell-based, Methicillin-resistant Staphylococcus pseudointermedius; details: 2 h, pH 7
# Description: as §1, §2
# [2] = tested on: pre-formed S. typhimurium biofilm; assay: Pre-formed biofilm destruction assay, crystal violet; type: cell-based, Salmonella typhimurium; details: 64 µg/mL, 3 h treatment, crystal violet
# Description: To test the destruction of preformed biofilms, in a 96-well plate, 15 µL of overnight culture, of either E. coli, S. typhimurium, or MRSA, was added to 150 µL of minimal salt media (40 mM […]; 22 mM KH2PO4; […] NH4CL; 740 mM NaCl; 2 mM MgSO4; 0.1 mM CaCl2; 22 mM supplemented with D-Glucose) in each well. Plates were placed in a static incubator at 37 °C for 48 h; the time required for untreated wells to form biofilm. After formation, minimal salt media was removed and wells were treated with 155 µL of minimal salt media containing PG-1 or SynPG-1. […] Plates were placed in a static incubator at 37 °C for 3 h. After 3 h, treated media was removed and wells were rinsed with 155 µL of PBS to remove planktonic cells. After sufficient drying of wells, 150 µL of 0.1% crystal violet stain was added to each well and incubated at room temperature for 30 min, after which dye was removed and wells were rinsed again with 155 µL of PBS. After sufficient drying of wells, 150 µL of 70% ethanol solution was added to each well and incubated at room temperature for 30 min. After 30 min, 100 µL of each well was added to a new 96-well plate and absorbance was measured at an OD of 590 nm.
smiles,measurement,setting,value
"CC(C)C[C@H](NC(=O)[C@H](CCCNC(=N)N)NC(=O)CNC(=O)CNC(=O)[C@@H](N)CCCNC(=N)N)C(=O)N[C@H]1CSSC[C@@H](C(=O)N[C@H](C(=O)NCC(=O)N[C@@H](CCCNC(=N)N)C(N)=O)C(C)C)NC(=O)[C@H](C(C)C)NC(=O)[C@@H]2CSSC[C@H](NC(=O)[C@H](Cc3ccc(O)cc3)NC1=O)C(=O)N[C@@H](CCCNC(=N)N)C(=O)N[C@@H](CCCNC(=N)N)C(=O)N[C@@H](CCCNC(=N)N)C(=O)N[C@@H](Cc1ccccc1)C(=O)N2 [PG-1, Protegrin-1]",MBC,MRSA,0.5 (0.18) μg/mL
same,Antimicrobial activity after incubation in 25% porcine intestinal fluid,[1],mean % growth of control increased for SynPG-1 but not PG-1
same,Concentration at which cell migration increased significantly,IPEC-J2 cells,20 µg/mL
same,Antibiofilm activity,A. baumanni biofilm,no antibiofilm activity
same,Concentration at which inhibition of biofilm formation was seen,"MRSA biofilm; minimal salt media, 48 h 37 °C static, crystal violet OD 590 nm, p < 0.05 vs control, concentration dependent",8 µg/mL
same,Effect on biofilm formation at the concentration where SynPG-1 began to reduce it,"MRSA biofilm; same concentration as SynPG-1 onset (2 µg/mL), crystal violet, 48 h",significant promotion of biofilm formation
same,MBC,MRSP,0.5 (0.18) μg/mL
same,Effect on pre-formed biofilm at 64 µg/mL,[2],did not demonstrate a significant reduction
